{"source": "patent US20260118363A1", "about": "“Application of GLUN2A and NMDA Receptor Containing GLUN2A as Targets in Screening Drugs for Treating Depression” (Synphatec (Shanghai) Biopharmaceutical Technology Co., Ltd., priority 2021, published 2026)", "key": {"[1]": {"test_system": "mice", "test": "Forced swim test", "assay_type": "in vivo, mouse", "details": "for immobility time in the forced swim test: 10 mg/kg intraperitoneal injection, 1 hour after injection", "method": "The mice were placed in a transparent organic glass water tank with a diameter of 25 cm and a height of 30 cm, which was filled with 15 cm high of water with a temperature of 23-25° C., and the total recording time was 6 min. The immobility time of the mice within the latter 4 min was analysed, reflecting the degree of helplessness and despair of the mice.\n(§1) MK-801 at a dose of 0.1 mg/kg, ketamine at a dose of 10 mg/kg, and Ro 25-6981 at a dose of 10 mg/kg were administrated to mice by intraperitoneal injection. Behavioural experiments such as subsequent open field tests, tail suspension tests, and forced swim tests were carried out 1 hour post intraperitoneal injection."}, "[2]": {"test_system": "excitatory neurons in the hippocampus", "test": "Whole cell recording of intrinsic excitability in hippocampal slices", "assay_type": "cell-based, mouse", "details": "for excitability of hippocampal neurons (number of action potentials): MK-801 10 µM, ketamine 20 µM", "method": "The beaker containing choline chloride slice solution was placed in an ice box and continuously introduced with a mixture of 95% O2 and 5% CO2 to saturate it with oxygen for use. After anesthetized with isoflurane, mice aged 4-8 weeks were quickly decapitated and euthanized. After exposing the skull and peeling off the dura mater, the whole brain was placed in a pre-cooled choline chloride solution for about 1 minute to reduce brain temperature. The whole brain was then taken out and the bilateral hippocampus were peeled off and attached to the surface of the agar block with one end of the hippocampus close to one of the edges of the agar block, after which the hippocampus-attached agar block was glued with 502 adhesive to a removable tray of the oscillating slicer, which was secured in the slicing tank of the oscillating slicer filled with pre-cooled choline chloride slicing solution. The oscillating slicer blade was adjusted to the horizontal position, then start the slicer to begin slice. The speed of the oscillating slicer was set to about 0.2 mm/s, and the slice thickness was 400 μm. The sliced hippocampus was carefully placed into ACSF preheated in water bath at 33-34° C. using a rubber hose and incubated for 30-60 minutes with a continuous introduction of a gas mixture of 95% O2 and 5% CO2. After incubation at 33-34° C., the vessel containing the brain slices was removed from the water bath and incubated at room temperature for about 30 min with continuous aeration and then electrophysiological recordings were performed. Hippocampal slices can be used for about 6 hours under room temperature with continuous aeration.\nHippocampal slices after incubation were carefully transferred to the bath of the microscope carrier stage with a pipette, and were held in place by pressing using an anchor attached to parallel nylon filaments, using a peristaltic pump to keep the bath continuously pumped with oxygen-saturated ACSF, and the temperature was maintained at room temperature of about 23-26° C. The CA1 region of the hippocampus was firstly localised at low magnification (10×), then switching to high magnification (40×) to locate CA1, after which the field of view was switched to the monitor to look for pyramidal neurons with good condition in hippocampal CA1. […] In the experiment, a P-1000 electrode drawing instrument was used to draw glass electrodes using a three-step method, making the impedance of the electrode into the liquid 4-6 MS2. Prior to electrode into the liquid, a 10 ml syringe was used to apply about 2 ml or so of positive pressure into the electrode to prevent clogging of the electrode tip, and the baseline of the recording software was reset to zero using the Multiple 700B. A microelectrode operator was applied to slowly approach the electrode to the surface of the cell. When the electrode touched the surface of the cell, a “dimple-shaped” depression would appear. At this time, positive pressure would be immediately released and appropriate negative pressure would be applied to form a seal between the electrode and the cell. […] After stabilizing for about 30-60 seconds, negative pressure was applied to break the membrane, and at this moment, a whole cell mode was formed. In current clamp mode, a depolarized step current stimulation of 10-330 pA was applied, with a step current of 20 pA. The intrinsic excitability of the neuron was evaluated by analyzing the number of action potentials generated by the neuron."}, "[3]": {"test_system": "mice", "test": "Tail suspension test", "assay_type": "in vivo, mouse", "details": "10 mg/kg", "method": "After fixing the mice at about 1.5 cm from the distal end of the tail, the mice were suspended with their heads facing downwards at a distance of about 35 cm from the ground. The total duration of recording was 6 min, and the percentage of time that the mice remained stationary during the latter 4 min was analysed to reflect the degree of desperation of mice.\nas §1"}, "[4]": {"details": "GluN2A KO mice, vs control group"}, "[5]": {"details": "hippocampal slices from GluN2A KO mice"}, "[6]": {"details": "hippocampal slices from WT mice, Ro 25-6981 3 M (1-2 hours incubation), same depolarizing current stimulation"}}}
{"smiles": "C[C@]12N[C@H](Cc3ccccc31)c1ccccc12", "note": "[MK-801]", "values": [{"measurement": "immobility time in the forced swim test", "setting": "[1]; [4]", "value": "comparable"}, {"measurement": "immobility time in forced swimming", "setting": "[1]; GluN2A conditional knockout mice (tamoxifen-induced, adult), after treatment with MK-801 (FIG. 5)", "value": "not altered"}, {"measurement": "rapid antidepressant like behavior (immobility time)", "setting": "[1]; WT mice with GluN2B selectively inhibited by Ro 25-6981 plus MK-801, FIG. 11: tail suspension and forced swim tests", "value": "can still induce rapid antidepressant like behavior"}, {"measurement": "immobility time in the forced swim test", "setting": "[1]; WT mice, vs control (saline)", "value": "significantly reduced"}, {"measurement": "immobility time in forced swimming", "setting": "[1]; control mice (UBC-CreERT/Grin2a flox/flox without GluN2A knockout), after administration of MK-801 (FIG. 5)", "value": "significantly reduced"}, {"measurement": "intrinsic excitability of excitatory neurons in the hippocampus", "setting": "[2]; acute hippocampal slices of WT mice incubated with Ro 25-6981 while adding MK-801", "value": "still induced an increase"}, {"measurement": "excitability of hippocampal neurons (number of action potentials)", "setting": "[2]; [5]", "value": "blocked the increase in excitability"}, {"measurement": "excitability of hippocampal neurons (number of action potentials)", "setting": "[2]; [6]", "value": "significantly increased"}]}
{"smiles": "CNC1(c2ccccc2Cl)CCCCC1=O", "note": "(centres unmarked) [ketamine]", "values": [{"measurement": "immobility time in the forced swim test", "setting": "[1]; [4]", "value": "comparable"}, {"measurement": "immobility time in the forced swim test", "setting": "[1]; WT mice, vs control (saline)", "value": "significantly reduced"}, {"measurement": "excitability of hippocampal neurons (number of action potentials)", "setting": "[2]; [5]", "value": "blocked the increase in excitability"}, {"measurement": "excitability of hippocampal neurons (number of action potentials)", "setting": "[2]; [6]", "value": "significantly increased"}]}
{"smiles": "C[C@@H](CN1CCC(Cc2ccccc2)CC1)[C@@H](O)c1ccc(O)cc1", "note": "[Ro 25-6981]", "values": [{"measurement": "immobility time in the forced swim test", "setting": "[1]; [4]", "value": "significantly reduced"}, {"measurement": "immobility time in the forced swim test", "setting": "[1]; WT mice, vs control (saline)", "value": "significant decrease"}, {"measurement": "immobility time in tail suspension test", "setting": "[3]; GluN2A KO mice", "value": "significantly reduced"}, {"measurement": "immobility time in tail suspension test", "setting": "[3]; WT mice, vs control (Saline) group", "value": "significant decrease"}, {"measurement": "excitability of hippocampal neurons (number of action potentials)", "setting": "[2]; [6]", "value": "did not change"}]}
